Assay results reported in US10202658B2, “Methods for determining hypersusceptibility of HIV-1 to non-nucleoside reverse transcriptase inhibitors” (Monogram Biosciences, Inc., priority 2005, dated 2019).

System: HIV-1 clinical isolates grouped by RT mutations
Experiment: Pairwise comparison of NNRTI fold change between groups of clinical isolates (Student's T-test, Bonferroni's Multiple Comparison Test)
Type: cell-based
Procedure: This example provides methods and compositions for identifying mutations that correlate with hypersusceptibility to a NNRTI. Resistance test vectors were constructed and used as described in Example 1. Resistance test vectors derived from patient samples or clones derived from the resistance test vector pools were tested in a resistance assay to determine accurately and quantitatively the relative EFV, DLV, or NVP resistance or susceptibility compared to the median observed resistance or susceptibility.
To identify mutations associated with NNRTI hypersusceptibility, the following analysis was performed. […] The TAMs referenced in. Table 1 include M41L, D67N, K70R, L210W, T215FY, and K219X, while the NAMs referenced include K65R, T69X, L74IV, V75X, and M184IV. Isolates without NRTI, NNRTI or PI mutations served as a wild type (WT) reference group. Further comparison groups comprised isolates with three TAMS including T215Y (+/−H208Y, +/−V118I) or three TAMS including K70R. Scatter plots and statistical tests (See FIGS. 1-6) were generated using Prism 4.0 (GraphPad, San Diego, Calif.)
In addition, a pairwise comparison between two sets of data was conducted using Bonferroni's Multiple Comparison Test using the Prism 4.0 software. The results of the comparison are presented in Tables 2, 3, and 4, appended to the end of this document. Samples with K65R, K65R+M184V, or 2 TAMs in combination with T215Y had over 40% with EFV FC<0.4.

Cc1ccnc2c1NC(=O)c1cccnc1N2C1CC1 [NVP, nevirapine]
Mean Diff. of fold change (1 NAM vs 2 NAMs): 0.2694 | Mean Diff. of fold change (1 NAM vs 3 NAMs): 0.221 | Mean Diff. of fold change (1 NAM vs K65R): 0.3361 | Mean Diff. of fold change (1 NAM vs K65R + M184V): 0.3786 | Mean Diff. of fold change (1 NAM vs K70R_3_TAMs): 0.08835 | Mean Diff. of fold change (1 NAM vs M184V): −0.01357 | Mean Diff. of fold change (1 NAM vs T69): −0.03843 | Mean Diff. of fold change (1 NAM vs T215Y_3_TAMs): 0.211 | Mean Diff. of fold change (1 NAM vs T215Y_3_TAMs_118): 0.2013 | Mean Diff. of fold change (1 NAM vs T215Y_3_TAMs_208): 0.2552 | Mean Diff. of fold change (1 NAM vs T215Y_3_TAMs_no118): 0.2175 | Mean Diff. of fold change (1 NAM vs T215Y_3_TAMs_no208): 0.204 | Mean Diff. of fold change (2 NAMs vs 3 NAMs): −0.04846 | Mean Diff. of fold change (2 NAMs vs K65R): 0.06669 | Mean Diff. of fold change (2 NAMs vs K65R + M184V): 0.1092 | Mean Diff. of fold change (2 NAMs vs K70R_3_TAMs): −0.1811 | Mean Diff. of fold change (2 NAMs vs M184V): −0.283 | Mean Diff. of fold change (2 NAMs vs T69): −0.3079 | Mean Diff. of fold change (2 NAMs vs T215Y_3_TAMs): −0.05842 | Mean Diff. of fold change (2 NAMs vs T215Y_3_TAMs_118): −0.06817 | Mean Diff. of fold change (2 NAMs vs T215Y_3_TAMs_208): −0.01419 | Mean Diff. of fold change (2 NAMs vs T215Y_3_TAMs_no118): −0.05192 | Mean Diff. of fold change (2 NAMs vs T215Y_3_TAMs_no208): −0.06547 | Mean Diff. of fold change (3 NAMs vs K65R): 0.1151 | Mean Diff. of fold change (3 NAMs vs K65R + M184V): 0.1577 | Mean Diff. of fold change (3 NAMs vs K70R_3_TAMs): −0.1326 | Mean Diff. of fold change (3 NAMs vs M184V): −0.2345 | Mean Diff. of fold change (3 NAMs vs T69): −0.2594 | Mean Diff. of fold change (3 NAMs vs T215Y_3_TAMs): −0.009962 | Mean Diff. of fold change (3 NAMs vs T215Y_3_TAMs_118): −0.01971 | Mean Diff. of fold change (3 NAMs vs T215Y_3_TAMs_208): 0.03427 | Mean Diff. of fold change (3 NAMs vs T215Y_3_TAMs_no118): −0.003462 | Mean Diff. of fold change (3 NAMs vs T215Y_3_TAMs_no208): −0.01701 | Mean Diff. of fold change (K65R + M184V vs K70R_3_TAMs): −0.2903 | Mean Diff. of fold change (K65R + M184V vs T215Y_3_TAMs): −0.1676 | Mean Diff. of fold change (K65R + M184V vs T215Y_3_TAMs_118): −0.1774 | Mean Diff. of fold change (K65R + M184V vs T215Y_3_TAMs_208): −0.1234 | Mean Diff. of fold change (K65R + M184V vs T215Y_3_TAMs_no118): −0.1611 | Mean Diff. of fold change (K65R + M184V vs T215Y_3_TAMs_no208): −0.1747 | Mean Diff. of fold change (K65R vs K65R + M184V): 0.04252 | Mean Diff. of fold change (K65R vs K70R_3_TAMs): −0.2478 | Mean Diff. of fold change (K65R vs M184V): −0.3497 | Mean Diff. of fold change (K65R vs T69): −0.3746 | Mean Diff. of fold change (K65R vs T215Y_3_TAMs): −0.1251 | Mean Diff. of fold change (K65R vs T215Y_3_TAMs_118): −0.1349 | Mean Diff. of fold change (K65R vs T215Y_3_TAMs_208): −0.08088 | Mean Diff. of fold change (K65R vs T215Y_3_TAMs_no118): −0.1186 | Mean Diff. of fold change (K65R vs T215Y_3_TAMs_no208): −0.1322 | Mean Diff. of fold change (K70R_3_TAMs vs T215Y_3_TAMs_118): 0.1129 | Mean Diff. of fold change (K70R_3_TAMs vs T215Y_3_TAMs_no118): 0.1292 | Mean Diff. of fold change (M184V vs K65R + M184V): 0.3922 | Mean Diff. of fold change (M184V vs K70R_3_TAMs): 0.1019 | Mean Diff. of fold change (M184V vs T69): −0.02486 | Mean Diff. of fold change (M184V vs T215Y_3_TAMs): 0.2246 | Mean Diff. of fold change (M184V vs T215Y_3_TAMs_118): 0.2148 | Mean Diff. of fold change (M184V vs T215Y_3_TAMs_208): 0.2688 | Mean Diff. of fold change (M184V vs T215Y_3_TAMs_no118): 0.2311 | Mean Diff. of fold change (M184V vs T215Y_3_TAMs_no208): 0.2175 | Mean Diff. of fold change (T69 vs K65R + M184V): 0.4171 | Mean Diff. of fold change (T69 vs K70R_3_TAMs): 0.1268 | Mean Diff. of fold change (T69 vs T215Y_3_TAMs): 0.2494 | Mean Diff. of fold change (T69 vs T215Y_3_TAMs_118): 0.2397 | Mean Diff. of fold change (T69 vs T215Y_3_TAMs_208): 0.2937 | Mean Diff. of fold change (T69 vs T215Y_3_TAMs_no118): 0.2559 | Mean Diff. of fold change (T69 vs T215Y_3_TAMs_no208): 0.2424 | Mean Diff. of fold change (T215Y_3_TAMs vs K70R_3_TAMs): −0.1227 | Mean Diff. of fold change (T215Y_3_TAMs vs T215Y_3_TAMs_118): −0.00975 | Mean Diff. of fold change (T215Y_3_TAMs vs T215Y_3_TAMs_208): 0.04423 | Mean Diff. of fold change (T215Y_3_TAMs vs T215Y_3_TAMs_no118): 0.0065 | Mean Diff. of fold change (T215Y_3_TAMs vs T215Y_3_TAMs_no208): −0.007051 | Mean Diff. of fold change (T215Y_3_TAMs_208 vs K70R_3_TAMs): −0.1669 | Mean Diff. of fold change (T215Y_3_TAMs_208 vs T215Y_3_TAMs_118): −0.05398 | Mean Diff. of fold change (T215Y_3_TAMs_208 vs T215Y_3_TAMs_no118): −0.03773 | Mean Diff. of fold change (T215Y_3_TAMs_208 vs T215Y_3_TAMs_no208): −0.05128 | Mean Diff. of fold change (T215Y_3_TAMs_no118 vs T215Y_3_TAMs_118): −0.01625 | Mean Diff. of fold change (T215Y_3_TAMs_no208 vs K70R_3_TAMs): −0.1156 | Mean Diff. of fold change (T215Y_3_TAMs_no208 vs T215Y_3_TAMs_118): −0.002699 | Mean Diff. of fold change (T215Y_3_TAMs_no208 vs T215Y_3_TAMs_no118): 0.01355 | mean fold change (FC) compared to the WT population (all groups containing NAMs or the combination of TAMs shown in Table 1, p<0.0001, Student's T-test): significantly lower | Mean Diff. of fold change (wt vs 1 NAM): 0.1982 | Mean Diff. of fold change (wt vs 2 NAMs): 0.4677 | Mean Diff. of fold change (wt vs 3 NAMs): 0.4192 | Mean Diff. of fold change (wt vs K65R): 0.5344 | Mean Diff. of fold change (wt vs K65R + M184V): 0.5769 | Mean Diff. of fold change (wt vs K70R_3_TAMs): 0.2866 | Mean Diff. of fold change (wt vs M184V): 0.1847 | Mean Diff. of fold change (wt vs T69): 0.1598 | Mean Diff. of fold change (wt vs T215Y_3_TAMs): 0.4092 | Mean Diff. of fold change (wt vs T215Y_3_TAMs_118): 0.3995 | Mean Diff. of fold change (wt vs T215Y_3_TAMs_208): 0.4535 | Mean Diff. of fold change (wt vs T215Y_3_TAMs_no118): 0.4157 | Mean Diff. of fold change (wt vs T215Y_3_TAMs_no208): 0.4022
